Reference: patent US20100086602A1, “PHARMACEUTICAL COMPOSITION CONTAINING STATIN-ENCAPSULATED NANOPARTICLE” (priority 2006, published 2010)
Entries after “also recorded” stand apart in the source; their conditions may differ. Values belong to the compound of their own block, whether it stands above or below them.

What was measured:
[1] = Serological assessment 14 days after hindlimb ischemia; assay type: in vivo, mice
Experimental: (§1) Male C57BL/6J wild-type mice were bred and maintained in the Laboratory of Animal Experiments at Kyushu University. After anesthesia with an intraperitoneal injection of ketamine hydrochloride and xyladine hydrochloride, animals underwent surgical ligation and resection of the left femoral artery to produce unilateral hindlimb ischemia. […] As a control, a group of PLGA-FITC-mice (FITC group) received intramuscular injections of FITC-loaded PLGA nanoparticles (0.16 mg/100 μl), a group of PEG/CS-PLGA-FITC-mice (PEG/CS-FITC group) received intramuscular injections of FITC-loaded PEG/CS PLGA nanoparticles (0.16 mg/100 μl), and another group of mice (NT group) received no treatment.
There were no difference between each group in the total cholesterol, triglyceride, myoglobin, CK, BUN and Cre values in serum.

[2] = tested on: unilateral hindlimb ischemia; assay: Laser Doppler perfusion imaging of limb blood flow after hindlimb ischemia; assay type: in vivo, mice; settings: single intramuscular injection containing 0.01 mg statin (0.5 mg/kg), days 0, 3, 7 and 14, versus no-treatment
Experimental: (§2) A group of PLGA-Pit-mice (PLGA-Pit group) and a group of PEG/CS-PLGA-Pit-mice (PEG/CS-Pit group) received intramuscular injections of pitavastatin-loaded PLGA nanoparticles (0.18 mg/100 μl) and pitavastatin-loaded PEG/CS-PLGA nanoparticles (0.44 mg/100 μl, each containing 0.01 mg of pitavastatin), respectively. As control, a group of PLGA-mice (PLGA group) received intramuscular injections of PLGA nanoparticles (0.18 mg/100 μl) and another group of mice (NT group) received no treatment.

[3] = tested on: unilateral hindlimb ischemia; assay: Capillary density by immunohistochemical staining with anti-mouse PECAM-1 (CD31) antibody; assay type: in vivo, mice; settings: day 14 after hindlimb ischemia; 0.01 mg statin intramuscular
Experimental: as §2

[4] = tested on: unilateral hindlimb ischemia; assay: Arteriogenesis by immunohistochemical staining with α-SMA; assay type: in vivo, mice; settings: day 14 after hindlimb ischemia; 0.01 mg pitavastatin intramuscular
Experimental: as §2
Arteriogenesis was determined by immunohistochemical staining with α-SMA.

[5] = tested on: hindlimb ischemia; assay: Recovery rate of ischemic tissues, pitavastatin dose comparison (FIG. 15); assay type: in vivo, mice; settings: intramuscular, one portion; only pitavastatin 0.4, 4 and 20 mg/kg or PLGA-pitavastatin; days 3, 7 and 14
Experimental: The recovery rate of ischemic tissues were determined for ischemic mice injected intramuscularly with only nanoparticles, only pitavastatin (0.4, 4 and 20 mg/kg) or PLGA-pitavastatin in one portion.

[6] = tested on: hindlimb ischemia; assay: Angiography 35 days after hindlimb ischemia (angiographic score); assay type: in vivo, Japanese rabbits; settings: Mean±SE; 35 days after ischemia, 28 days after intramuscular injection of 5 ml (0.33 mg/ml pitavastatin)
Experimental: (§3) Japanese rabbits (2.7 to 3.2 kg) underwent surgical ligation and resection of the unilateral femoral artery to produce hindlimb ischemia. After 7 days, animals were randomized to four groups: PLGA-pitavastatin group, PLGA-FITC group, pitavastatin group and PBS group, and received therapeutic substances by intra-ischemic-muscular injection of 5 ml (concentration of pitavastatin-loaded nanoparticle 6 mg/ml, corresponding to 0.33 mg/ml of pitavastatin). After 28 days from intramuscular injection (35 days after ischemia), animals were performed angiography. Mice were inserted catheters (5 Fr) from right internal carotid artery and the catheters were placed in left internal iliac artery under fluoroscopic control. 0.25 mg of Millisrol were injected into artery through catheters, followed by injection of imaging agents at the rate of 1 ml/second for 5 seconds to perform angiography. An assessment for the number of blood vessel was carried out by using static images at 3 second after injection of imaging agents. 5 mm of grids were prepared within the range surrounded by lower end of femur (upper end), lower end of quadriceps (lower end), arteria iliaca interna (trunks are not counted, inner end) and distal portion of severed blood vessel (outer end). Angiographic score was calculated by dividing the number of grids in which blood vessel is found by total number of grids.

[7] = tested on: hindlimb ischemia; assay: Partial pressure ratio of oxygen in arterial and venous blood during muscular exercise of ischemic hindlimb; assay type: in vivo, Japanese rabbit; settings: 35 days after ischemia; exercise by electric stimulus for 30 minutes; 0, 15 and 30 minutes
Experimental: as §3, with “0.25 mg of Millisrol were injected into artery through catheters, followed by injection of imaging agents at the rate of 1 ml/second for 5 seconds to perform angiography. An assessment for the number of blood vessel was carried out by using static images at 3 second after injection of imaging agents.” left out
The effect of nanostatin on insufficient blood from at ischemic hindlimb on muscular exercising is examined. […] The partial pressure ratio of oxygen in arterial and venous blood in each time point was determined. The concentration of hemoglobine was determined at 0 minute. […]

[8] = tested on: muscular tissues of ischemic hindlimb; parameters: species or system mice; settings: mouse, in vivo
Experimental: as §1

BUN ([1]; serum, n = 4): 30.3 ± 2.8 mg/dL | CK ([1]; serum, n = 4): 159.0 ± 37.7 IU/L | Cre ([1]; serum, n = 4): 0.083 ± 0.009 mg/dL | myoglobin ([1]; serum, n = 4): <10 ng/mL
Compound: CC(C)c1c(C(=O)Nc2ccccc2)c(-c2ccccc2)c(-c2ccc(F)cc2)n1CC[C@@H](O)C[C@@H](O)CC(=O)O [atorvastatin]
signs of rhabdomyolysis ([1]; intramuscularly injected mice): Neither group of atorvastatin nor atorvastatin-loaded nanoparticle intramuscularly injected mice showed the signs of rhabdomyolysis | total cholesterol ([1]; serum, n = 4): 66.0 ± 3.2 mg/dL | triglyceride ([1]; serum, n = 4): 13.5 ± 1.8 mg/dL

Compound: O=C(O)C[C@H](O)C[C@H](O)/C=C/c1c(C2CC2)nc2ccccc2c1-c1ccc(F)cc1 [pitavastatin]
limb blood flow at ischemic side (LDPI index, ratio of ischemic to normal limb) [2]: comparable to no-treatment group | limb blood flow at ischemic side (LDPI index, ratio of ischemic to normal limb) ([2]; listed as Pit): no improvement of blood flow | capillary density, endothelial cells (CD31 positive cells) [3]: comparable to no-treatment group | α-SMA positive vascular structure (arteriogenesis) [4]: comparable to no-treatment group | recovery of ischemic tissues / angiogenesis (ratio of ischemic region to normal region) [5]: does not result in angiogenesis; also recorded: No angiogenesis | Angiographic score [6]: 0.51±0.04 | partial pressure ratio of oxygen in arterial and venous blood during muscular exercise [7]: increases of partial pressure ratio of oxygen in arterial and venous blood were shown

Compound: FITC
nanoparticles remaining in muscular tissues (fluorescence) [8]: nanoparticles remain in muscular tissues on day 7
